{"source": "patent US10732172B1", "about": "“Methods, systems, and compositions for determining blood clot formation, and uses thereof” (President and Fellows of Harvard College, priority 2015, dated 2020)", "key": {"HUVECs and platelets": {"test_system": "HUVECs and platelets", "test": "Platelet adhesion and dynamics on TNF-α stimulated endothelium (living or fixed), whole blood perfusion", "format": "cell-based, human", "conditions": "for platelet aggregation pattern / Aggregation Index (AI) / translocation and embolization of thrombi / Embolization Index (EI): HUVEC, TNF-α 0, 5, 100 ng/ml", "protocol": "500 microliters (“μL”) of whole blood are pipetted into a fluid reservoir fitted to one end of a microchannel. Platelets are labeled with human CD41-PE antibody (e.g., 10 μL/mL from Invitrogen) that is directly added to the blood samples and incubated at room temperature for 10 minutes. Fluorescently labeled fibrinogen (e.g., 10 μg/mL from Life Sciences) is added, if required. Blood is pulled through the device (e.g., 30 μL/min) via tubing at an outlet using a syringe pump (e.g., PHD Ultra™ CP, Harvard Apparatus), resulting in an arterial shear rate of 750 s^−1. After two minutes, blood is supplemented with 100 millimolars (“mM”) calcium (“CaCl2”) and 75 mM magnesium (“MgCl2”) to support coagulation-activated blood clotting (e.g., 100 μL/mL).\nPlatelets are visualized using time-lapse fluorescence imaging (e.g., 20×, NA 0.4). A time series of a 10-frame panorama (e.g., 6 mm long×0.665 mm wide region of a microchannel), at a lapse of every 30 seconds is recorded. The resulting image stack is maximum intensity projected along time, thresholded, segmented, and cropped to a central 200 microns (“μm”) of the channel width for analysis. Finally, platelet coverage is computed from the binary image as the ratio of bright pixels to the total number of pixels in the image.\nMultiple endothelial adhesion molecules are involved in the recruitment of blood cells and platelets in thrombosis in vivo. In previous studies, treatment of a living endothelium cultured in microfluidic channels with TNF-α results in an increase in expression of surface adhesion molecules, such as ICAM-1 and VCAM-1 within four hours after addition. To explore whether a fixed endothelium retains expression of these and other surface molecules that could potentially exacerbate thrombosis, the endothelium is first activated in the device by adding increasing doses of TNF-α, e.g., 0, 5, and 100 nanograms/millliter (“ng/ml”), for approximately 18 hours. The endothelium cells are fixed with 4% paraformaldehyde in phosphate-buffered saline (“PBS”) for 15 minutes at room temperature, are rinsed three times with PBS, and, then, stored in PBS at 4° C. in a humid environment.\nTo explore whether the fixed endothelium in the microfluidic devices retains the ability to promote hemostasis, recalcified citrated whole blood (coagulation activated) is immediately perfused through a microfluidic channel lined by the fixed endothelium and preserved for 24-36 hours. Platelet adhesion is analyzed for 15 minutes of flow.\n(§1) Specifically, the analysis includes a method to quantitate platelet function in flow chambers and microfluidic devices that has been primarily limited to analyzing platelet adhesion on bare collagen surfaces. To analyze platelet-endothelial dynamics that will act as a robust readout of physiologically-relevant clotting, an automated imaging program creates an image time-series, K(x, y, t), containing a 10-frame panorama in space. Images are acquired at a frame rate of 2 panoramic images per minute, for a total time of 15 minutes. A non-dimensional stochastic index is derived to quantitate platelet endothelial dynamics (“P-E”), which is the interpercentile range of a coefficient of variance of the image time-series: P-E=range(CV(K(x,y,t) (1) A feature of this analytical readout is that instead of an “ensemble averaging,” the method incorporates the cell-surface interactions at the pixel level and quantitates statistical “dispersion” of interactions.\nWhen the device is perfused with whole blood, thrombi that are rich in platelets and fibrin form on the surface (FIG. 65C). The spatiotemporal dynamics of fluorescent platelet activity during formation of these thrombi on the endothelial surface was analyzed by time-lapse imaging. As flow was stable for at least 15 min, all experiments were carried out within the first 15 minutes. In some embodiments, blood might begin to clot in the tubing connected to the chip at later times (leading to decreased perfusion rates). […]"}, "[1]": {"test_system": "primary alveolar epithelial cells (AE) and endothelial cells with whole blood", "test": "Lung-on-a-chip stimulated with TNF-α or LPS: vascular ICAM-1, P-E, clots, gap junctions", "format": "cell-based, human", "source_text": "as §1\nAfter plasma treatment of the microfluidic devices, the two chambers are pre-treated with 10% (3-aminopropyl)-trimethoxysilane (APTMES, e.g., from Sigma) in 100% anhydrous alcohol (e.g., from Sigma) for 10-20 minutes. The chambers are flushed sequentially with 70% ethanol in water and 100% ethanol, and then dried at 60-80° C. for two hours. Then, a mixture of rat tail collagen I (100 μg ml^−1 in PBS, from BD Biosciences) and fibronectin (e.g., 30 μg/ml in PBSm, from BD Biosciences) is introduced in both chambers of the microfluidic device. The microfluidic device is incubated at 37° C. for at least 2 hours before flushing with PBS or EGM-2 cell culture media.\nSome of the microfluidic devices are used with collagen coating alone (without cells). In other devices, HUVECs (e.g. from Lonza) are cultured in Endothelial Growth Medium-2 (EGM-2, from Lonza) and used between certain passages. The cells (5-10×10^6 cells/ml) are introduced into the collagen-coated channels and incubated for 20 minutes at 37° C. to promote cell attachment before a second similar HUVEC suspension is, then, introduced. The microfluidic devices are incubated upside down for an additional 20 minutes to seed the cells on the ceiling and walls of the lower chamber.\nThe lower chamber is then flushed with EGM-2 and, then, a suspension of primary alveolar epithelial cells (e.g., from ScienCell Research Labs, Carlsbad, Calif.; 5-6×10^6 cells ml^−1) is introduced into the top chamber of the device. After a few hours, the top and bottom chambers are flushed with their respective media, and the microfluidic devices are incubated at 37° C. under 5% CO2 for 3 days (with media being replaced each day once). On day 4, the bottom vascular chamber is set on perfusion of EGM-2 media (e.g., 30 μL hr^−1; 0.5% fetal bovine serum) to provide shear to the HUVEC vessel chamber and a continuous supply of fresh media.\nOn day 6, the epithelial cell media in the top chamber is aspirated to create the air-liquid interface of the alveoli. Hereon, the cell culture continues for another 6-8 days, after which, in some cases, the top chamber is supplemented with 0, 5, or 100 ng ml^−1 TNF-α in PBS (e.g., from Sigma) overnight or LPS (e.g., 100 ng ml^−1 of E. Coli, from Sigma,) for 2 hours to cause cell activation. The LPS is sonicated in ultrasonic bath for about 20-30 minutes before introducing into the microfluidic device. After stimulation, the top chamber is clamped, the bottom chamber is rinsed with culture media, a reservoir cut from a 3 ml slip-tip syringe (e.g., from BD) is inserted on one end of the lower chamber, and a 1/16-inch male luer connector (e.g., from Qosina Corp) is inserted on the other end of the lower chamber.\nWhen analyzing the formation of fibrin, blood samples re added with 15 μg ml^−1 of fluorescently labeled fibrinogen (e.g., Alexa 488 from Invitrogen). […]"}}, "note": "“Also recorded” adds a separate entry of the source.", "data": [{"substance": "tumor necrosis factor-α [TNF-α]", "values": [{"measurement": "platelet aggregation pattern / Aggregation Index (AI)", "setting": "HUVECs and platelets", "result": "heterogeneous and fluctuated in a dose-dependent manner; also recorded: varied depending on the dose of TNF-α"}, {"measurement": "translocation and embolization of thrombi / Embolization Index (EI)", "setting": "HUVECs and platelets", "result": "great variation in the fluorescent signal over time and space; also recorded: increased with increasing doses"}, {"measurement": "platelet aggregation pattern / Aggregation Index (AI)", "setting": "HUVECs and platelets; listed as TNFα", "result": "rise of AI with increasing TNFα dose"}, {"measurement": "translocation and embolization of thrombi / Embolization Index (EI)", "setting": "HUVECs and platelets; listed as TNFα", "result": "increased in a TNFα dose-dependent manner"}, {"measurement": "area-averaged platelet adhesion rate on living HUVECs", "setting": "HUVECs and platelets; TNF-α stimulated HUVECs (TNF+; TNF++) versus unstimulated", "result": "increase in platelet adhesion"}, {"measurement": "platelet dynamics (TPD, SPD) on fixed HUVECs", "setting": "HUVECs and platelets; TNF-α treated and fixed, versus fixed collagen or untreated fixed endothelium", "result": "elevated"}, {"measurement": "platelet coverage on fixed endothelium", "setting": "HUVECs and platelets; endothelium treated with increasing doses of TNF-α prior to fixation", "result": "increases in a TNF-α dose-dependent manner; also recorded: dose-dependent increase in platelet surface adhesion; also recorded: dose-dependent increase in surface coverage of platelet-rich thrombi"}, {"measurement": "platelet-endothelial dynamics (P-E; spatial and temporal dispersion)", "setting": "HUVECs and platelets; living endothelium stimulated with TNF-α", "result": "increase in a TNF-α dose dependent manner; also recorded: significant fluctuations; also recorded: TNF-α dose-dependent increase in both the spatial and temporal dispersion"}, {"measurement": "platelet coverage / adhesion on living endothelium", "setting": "HUVECs and platelets; living endothelium stimulated with TNF-α before blood flow", "result": "increases in a TNF-α dose-dependent manner; also recorded: platelet adhesion again occurs; also recorded: platelet adhesion and aggregation again resulted"}, {"measurement": "vascular ICAM-1 expression in lung-on-chip", "setting": "[1]; TNF-α on alveolar compartment containing AE", "result": "increases in a dose-dependent manner"}, {"measurement": "platelet-endothelial dynamics in lung-on-chip", "setting": "[1]; TNF-α stimulated versus untreated", "result": "follows a similar trend as ICAM-1"}, {"measurement": "clots (platelets and fibrin) in vascular compartment of lung-on-chip", "setting": "[1]; TNF-α stimulated, end of assay", "result": "significant amount of clots are observed"}]}]}
